Reference: PMC10568461, “A pilot study of cerebral metabolism and serotonin 5-HT2A receptor occupancy in rats treated with the psychedelic tryptamine DMT in conjunction with the MAO inhibitor harmine” (Frontiers in Pharmacology, 2023)
pKd: −log10 of the molar value.

How the values were obtained:
[1] = Brain concentrations of harmine, DMT and metabolites by UHPLC-MS after s.c. harmine and/or DMT; settings: for concentration at 95 min / concentration at 65 min: rat, subcutaneous
Protocol: Groups of (n = 6) rats received either saline, harmine (1 mg/kg), DMT (1 mg/kg), or harmine + DMT (1 mg/kg each) as subcutaneous injections, as indicated in Figure 1.
After 45 min, rats were sacrificed by decapitation, and the brains dissected into cerebellum and frontal cortex samples for radioactivity measurement and chemical analysis, thus 65 min after harmine + DMT.

[2] = molecular target: T1, MAO-A (Rattus norvegicus, UniProt P21396); design: method as in Maschauer et al., 2015; settings: ref Maschauer et al., 2015; read-out: Apparent affinity (KD) at MAO-binding sites in living rat brain; cited from earlier work
T1 sequence (P21396 1-526): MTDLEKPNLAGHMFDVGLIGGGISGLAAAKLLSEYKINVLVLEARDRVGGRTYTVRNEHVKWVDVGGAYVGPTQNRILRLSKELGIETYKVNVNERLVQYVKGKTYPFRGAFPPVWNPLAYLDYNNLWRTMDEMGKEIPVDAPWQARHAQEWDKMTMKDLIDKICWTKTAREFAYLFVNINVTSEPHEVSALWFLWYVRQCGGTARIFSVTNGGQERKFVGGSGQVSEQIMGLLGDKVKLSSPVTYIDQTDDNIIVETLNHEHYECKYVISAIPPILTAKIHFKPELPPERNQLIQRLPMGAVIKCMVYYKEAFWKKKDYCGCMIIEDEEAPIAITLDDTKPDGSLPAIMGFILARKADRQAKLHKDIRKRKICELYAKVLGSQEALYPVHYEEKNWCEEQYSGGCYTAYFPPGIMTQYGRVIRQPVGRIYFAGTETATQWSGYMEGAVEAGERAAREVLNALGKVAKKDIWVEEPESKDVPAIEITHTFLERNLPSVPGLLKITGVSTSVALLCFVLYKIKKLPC

[3] = molecular target: MAO-A; settings: ref Maschauer et al., 2015; read-out: KD in vitro; cited from earlier work
[4] = molecular target: T1, MAO-A; assay: Apparent affinity at MAO binding sites in living brain; format: in vivo; settings: from values of ref Maschauer et al., 2015
[5] = system: 5-HT2A receptors; settings: cited from earlier work
[6] = Exp 1, group DMT, average of regions
[7] = Exp 1, group Har + DMT, average of regions
[8] = Exp 1, group Har + DMT, cerebellum
[9] = Exp 1, group Har + DMT, front cort
[10] = Exp 2, group Har + DMT, average of regions
[11] = Exp 2, group Har + DMT, cerebellum
[12] = Exp 2, group Har + DMT, front cort
[13] = brain (average of frontal cortex and cerebellum), 1 mg/kg, Molar concentration, Exp 1, group DMT, average of regions
[14] = brain (average of frontal cortex and cerebellum), Molar concentration, Exp 1, group Har + DMT, average of regions
[15] = brain (average of frontal cortex and cerebellum), Molar concentration, Exp 2, group Har + DMT, average of regions
[16] = cerebellum, 1 mg/kg, Molar concentration, Exp 1, group DMT, cerebellum
[17] = cerebellum, Molar concentration, Exp 1, group Har + DMT, cerebellum
[18] = cerebellum, Molar concentration, Exp 2, group Har + DMT, cerebellum
[19] = frontal cortex, 1 mg/kg, Molar concentration, Exp 1, group DMT, front cort
[20] = frontal cortex, Molar concentration, Exp 1, group Har + DMT, front cort
[21] = frontal cortex, Molar concentration, Exp 2, group Har + DMT, front cort

O=C(O)Cc1c[nH]c2ccccc12 [3-IAA, indole-3-acetic acid]
Percentage of total molar concentration of DMT and metabolites [1, 6]: 97.5% | Percentage of total molar concentration of DMT and metabolites ([1]; Exp 1, group DMT, cerebellum): 97.9% | Percentage of total molar concentration of DMT and metabolites ([1]; Exp 1, group DMT, front cort): 97.3% | Percentage of total molar concentration of DMT and metabolites [1, 7]: 64.7% | Percentage of total molar concentration of DMT and metabolites [1, 8]: 65.3% | Percentage of total molar concentration of DMT and metabolites [1, 9]: 64.2% | Percentage of total molar concentration of DMT and metabolites [1, 10]: 25.9% | Percentage of total molar concentration of DMT and metabolites [1, 11]: 27.5% | Percentage of total molar concentration of DMT and metabolites [1, 12]: 24.7% | Brain concentration ([1]; Experiment 1, cerebellum, group DMT (1 mg/kg s.c.), 95 min, mean (SD)): 398.5 (128.3) ng/g | Brain concentration ([1]; Experiment 1, cerebellum, group Har + DMT (1 mg/kg each s.c.), 95 min, mean (SD)): 194.1 (117.2) ng/g | Brain concentration ([1]; Experiment 1, frontal cortex, group DMT (1 mg/kg s.c.), 95 min, mean (SD)): 503.9 (137.7) ng/g | Brain concentration ([1]; Experiment 1, frontal cortex, group Har + DMT (1 mg/kg each s.c.), 95 min, mean (SD)): 257.5 (103.6) ng/g | Lower cerebral 3-IAA concentration after co-administration of harmine and DMT ([1]; Experiment 1, versus DMT alone): 50% | Brain concentration ([1]; Experiment 2, cerebellum, group Har + DMT (3 mg/kg each s.c.), 65 min, mean (SD)): 530.7 (129.8) ng/g | Brain concentration ([1]; Experiment 2, frontal cortex, group Har + DMT (3 mg/kg each s.c.), 65 min, mean (SD)): 652.1 (186.5) ng/g | concentration at 95 min [1, 13]: 2580 nM | concentration at 95 min [1, 14]: 1290 nM | concentration at 65 min [1, 15]: 3380 nM | concentration at 95 min ([1]; cerebellum, 1 mg/kg, Brain concentration, Experiment 1, cerebellum, after DMT alone (1 mg/kg)): 2300 nM | concentration at 95 min ([1]; cerebellum, 1 mg/kg, Brain concentration, Experiment 1, cerebellum, group DMT (1 mg/kg s.c.), 95 min, mean (SD)): 398 ng/g | concentration at 95 min [1, 16]: 2270 nM | concentration at 95 min ([1]; cerebellum, Brain concentration, Experiment 1, cerebellum, after harmine + DMT (1 mg/kg each)): 1100 nM | concentration at 95 min ([1]; cerebellum, Brain concentration, Experiment 1, cerebellum, group Har (harmine 1 mg/kg s.c.), 95 min after drug, mean (SD)): 11.1 ng/g | concentration at 95 min ([1]; cerebellum, Brain concentration, Experiment 1, cerebellum, group Har + DMT (1 mg/kg each s.c.), 95 min, mean (SD)): 194 ng/g | concentration at 65 min ([1]; cerebellum, Brain concentration, Experiment 2, cerebellum, after harmine + DMT (3 mg/kg each)): 3000 nM | concentration at 65 min ([1]; cerebellum, Brain concentration, Experiment 2, cerebellum, group Har + DMT (3 mg/kg each s.c.), 65 min, mean (SD)): 531 ng/g | concentration at 95 min [1, 17]: 1110 nM | concentration at 65 min [1, 18]: 3030 nM | concentration at 95 min ([1]; frontal cortex, 1 mg/kg, Brain concentration, Experiment 1, frontal cortex, after DMT alone (1 mg/kg)): 2900 nM | concentration at 95 min ([1]; frontal cortex, 1 mg/kg, Brain concentration, Experiment 1, frontal cortex, group DMT (1 mg/kg s.c.), 95 min, mean (SD)): 504 ng/g | concentration at 95 min [1, 19]: 2880 nM | concentration at 95 min ([1]; frontal cortex, Brain concentration, Experiment 1, frontal cortex, after harmine + DMT (1 mg/kg each), 95 min): 1500 nM | concentration at 95 min ([1]; frontal cortex, Brain concentration, Experiment 1, frontal cortex, group Har (harmine 1 mg/kg s.c.), 95 min, mean (SD)): 14.1 ng/g | concentration at 95 min ([1]; frontal cortex, Brain concentration, Experiment 1, frontal cortex, group Har + DMT (1 mg/kg each s.c.), 95 min, mean (SD)): 258 ng/g | concentration at 65 min ([1]; frontal cortex, Brain concentration, Experiment 2, frontal cortex, after harmine + DMT (3 mg/kg each), 65 min): 3700 nM | concentration at 65 min ([1]; frontal cortex, Brain concentration, Experiment 2, frontal cortex, group Har + DMT (3 mg/kg each s.c.), 65 min, mean (SD)): 652 ng/g | concentration at 95 min [1, 20]: 1470 nM | concentration at 65 min [1, 21]: 3720 nM

C[N+](C)([O-])CCc1c[nH]c2ccccc12 [DMT-N-Oxide, DMT-N-oxide]
Molar concentration [1, 6]: 3.29 nmol/L | Percentage of total molar concentration of DMT and metabolites [1, 6]: 0.1% | Molar concentration ([1]; Exp 1, group DMT, cerebellum): 3.16 nmol/L | Percentage of total molar concentration of DMT and metabolites ([1]; Exp 1, group DMT, cerebellum): 0.1% | Molar concentration ([1]; Exp 1, group DMT, front cort): 3.43 nmol/L | Percentage of total molar concentration of DMT and metabolites ([1]; Exp 1, group DMT, front cort): 0.1% | Molar concentration [1, 7]: 27.52 nmol/L | Percentage of total molar concentration of DMT and metabolites [1, 7]: 1.4% | Molar concentration [1, 8]: 30.49 nmol/L | Percentage of total molar concentration of DMT and metabolites [1, 8]: 1.8% | Molar concentration [1, 9]: 24.54 nmol/L | Percentage of total molar concentration of DMT and metabolites [1, 9]: 1.1% | Molar concentration [1, 10]: 90.73 nmol/L | Percentage of total molar concentration of DMT and metabolites [1, 10]: 0.7% | Molar concentration [1, 11]: 131.9 nmol/L | Percentage of total molar concentration of DMT and metabolites [1, 11]: 1.2% | Molar concentration [1, 12]: 49.57 nmol/L | Percentage of total molar concentration of DMT and metabolites [1, 12]: 0.3%

CNCCc1c[nH]c2ccccc12 [NMT, N-methyltryptamine]
Percentage of total molar concentration of DMT and metabolites [1, 6]: 0.0% | Percentage of total molar concentration of DMT and metabolites ([1]; Exp 1, group DMT, cerebellum): 0.0% | Percentage of total molar concentration of DMT and metabolites ([1]; Exp 1, group DMT, front cort): 0.0% | Percentage of total molar concentration of DMT and metabolites [1, 7]: 0.1% | Percentage of total molar concentration of DMT and metabolites [1, 8]: 0.1% | Percentage of total molar concentration of DMT and metabolites [1, 9]: 0.0% | Percentage of total molar concentration of DMT and metabolites [1, 10]: 0.1% | Percentage of total molar concentration of DMT and metabolites [1, 11]: 0.2% | Percentage of total molar concentration of DMT and metabolites [1, 12]: 0.1% | concentration at 95 min [1, 13]: 0.15 nM | concentration at 95 min [1, 14]: 1.14 nM | concentration at 65 min [1, 15]: 15.9 nM | concentration at 95 min [1, 16]: 0.15 nM | concentration at 95 min [1, 17]: 1.38 nM | concentration at 65 min [1, 18]: 20.7 nM | concentration at 95 min [1, 19]: 0.16 nM | concentration at 95 min [1, 20]: 0.89 nM | concentration at 65 min [1, 21]: 11.2 nM

Cc1nccc2c1[nH]c1cc(OCCF)ccc12 [[^18F]fluoroethyl-harmol]
pKd [2]: 6.52 | pKd [3]: 8.70

Cc1nccc2c1[nH]c1cc(OCC[18F])ccc12 [[^18F]fluoroethyl-harmol]
In vitro/in vivo affinity difference [4]: 150 fold

CN(C)CCc1c[nH]c2cccc(OP(=O)(O)O)c12 [psilocybin]
Occupancy at 5-HT2A receptors ([5]; PET with [^11C]Cimbi-36, ref Madsen et al., 2019): ≤ 70% | Occupancy at 5-HT2A receptors in human frontal cortex ([5]; PET with [^18F]altanserin, ref Hasler et al., 2009a): ≤ 35%
